According to patent publication US10376465B2, “Monovalent metal cation dry powders for inhalation” (priority 2010, dated 2019):
Read-outs that look alike come from different tables or passages of the source.

What was measured:
[1] = Solubility of salts and drugs in water / ethanol; format: physicochemical
Text: Spray drying homogenous particles requires that the ingredients of interest be solubilized in solution or suspended in a uniform and stable suspension. Most of the materials mentioned in the material section are sufficiently water-soluble to prepare suitable spray drying solutions. […] As a result of these low solubilities, formulation feedstock development work was necessary to prepare solutions or suspensions that could be spray dried.
For the spray drying process, the salts, excipients and other drugs were dissolved or suspended in a solvent (e.g., water). The solid concentrations (w/v) were chosen dependent on the solubility of the different components (see Table 2). The ratios used for formulations were based on the molecular weight of the anhydrous salts (see Table 3).

[2] = test system: mice sensitized and challenged with ovalbumin (OVA); conditions: literature (Riesenfeld 2010); cited from earlier work

SMILES	solubility in ethanol ([1]; in words)	solubility in water ([1]; in words)	eosinophilic cells and total cellularity in the mouse OVA model [2]	solubility in ethanol [1]	solubility in water [1]
OCc1cc(C(O)CNCCCCCCOCCCCc2ccccc2)ccc1O (stereo not shown) [salmeterol xinafoate]	slightly soluble	practically insoluble			
CCC(=O)O[C@]1(C(=O)SCF)[C@H](C)C[C@H]2[C@@H]3C[C@H](F)C4=CC(=O)C=C[C@]4(C)[C@@]3(F)[C@@H](O)C[C@@]21C [Fluticasone propionate, fluticasone propionate]			reduce eosinophilic cells and total cellularity	slightly soluble	practically insoluble
CCCC1O[C@@H]2C[C@H]3[C@@H]4CCC5=CC(=O)C=C[C@]5(C)[C@H]4[C@@H](O)C[C@]3(C)[C@]2(C(=O)CO)O1 (stereo partly shown) [Budesonide, budesonide]				slightly soluble	practically insoluble
